{
  "source": "patent US11999736B1",
  "about": "“Pyrazino[2′,1′:2,3]imidazo[4,5-b][1,7]naphthyridines compounds as CK2 inhibitors” (KING FAISAL UNIVERSITY, priority 2023, dated 2024)",
  "key": {"[1]": {"tested_on": "HL60 (leukemia) cancer cell line", "test": "In vitro cytotoxic activity MTT assay, HL60", "format": "cell-based", "conditions": "Homo sapiens, HL-60; HL60 (leukemia) cells, exposed for 96 hours; read-out: IC50, concentration of compound eliciting a 50% inhibition of cell proliferation", "description": "(§1) Compounds 1-16 were screened for their in vitro cytotoxic activity utilizing a 3-(4,5-dimethyl-thiazol-2-yl)-2,5-diphenyltetrazolium bromide (MTT) assay against selected cancer human cell lines consisting of PC3 (prostate), HCT116 (colon), A375 (melanoma), H1299 (lung), MIAPaCa-2 (pancreas), HL60 (leukemia), MCF7 (breast), MDA-MB-231 (breast) (T. Mosmann, J. Immunol. Meth., 1983, 65, 55-63). The cells were cultured at 37° C. in RMPI1640 medium supplemented with 10% fetal bovine serum, 50 IU/mL penicillin, and 50 μg/mL streptomycin in a 5% CO2 incubator. All cells were sub-cultured 3 times/week by trypsinisation. Viable cells were seeded and allowed to adhere for 12 h before a test drug was added in 96-well plates at an initial density of 1.0×10^5 cells/mL. Tumor cell lines were separately exposed to various concentrations of the tested compounds followed by incubation at a temperature of 37° C. during 96 hours inside a medium of fresh RMPI 1640. Cells were subsequently incubated at 37° C. using MTT at 0.5 mg/mL during 4 hours. After removal of supernatant, formazan crystals were dissolved in isopropanol and the optical density was measured at 570 nm. CX-4945 was used as a positive control."}, "[2]": {"tested_on": "H1299 (lung) cancer cell line", "test": "In vitro cytotoxic activity MTT assay, H1299", "format": "cell-based", "conditions": "Homo sapiens, NCI-H1299; H1299 (lung) cells, exposed for 96 hours; read-out: IC50, concentration of compound eliciting a 50% inhibition of cell proliferation", "description": "as §1"}, "[3]": {"tested_on": "A375 (melanoma) cancer cell line", "test": "In vitro cytotoxic activity MTT assay, A375", "format": "cell-based", "conditions": "Homo sapiens, A-375; A375 (melanoma) cells, exposed for 96 hours; read-out: IC50, concentration of compound eliciting a 50% inhibition of cell proliferation", "description": "as §1"}, "[4]": {"molecular_target": "T1, recombinant human CK2 (holoenzyme) (Homo sapiens, UniProt P68400)", "T1 construct": "purchased Millipore", "T1 sequence (P68400 whole entry)": "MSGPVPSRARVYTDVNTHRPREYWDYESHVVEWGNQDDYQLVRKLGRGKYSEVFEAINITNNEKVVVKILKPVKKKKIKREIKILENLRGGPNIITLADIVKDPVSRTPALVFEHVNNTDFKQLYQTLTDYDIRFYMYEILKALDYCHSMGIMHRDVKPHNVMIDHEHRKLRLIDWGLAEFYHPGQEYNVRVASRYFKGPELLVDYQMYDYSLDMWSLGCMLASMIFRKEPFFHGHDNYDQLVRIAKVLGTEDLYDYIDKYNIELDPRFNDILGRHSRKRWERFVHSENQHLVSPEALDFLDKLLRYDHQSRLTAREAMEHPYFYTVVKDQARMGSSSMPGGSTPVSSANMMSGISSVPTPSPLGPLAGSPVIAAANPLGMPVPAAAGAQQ", "T1 sequence (P67870 whole entry partner)": "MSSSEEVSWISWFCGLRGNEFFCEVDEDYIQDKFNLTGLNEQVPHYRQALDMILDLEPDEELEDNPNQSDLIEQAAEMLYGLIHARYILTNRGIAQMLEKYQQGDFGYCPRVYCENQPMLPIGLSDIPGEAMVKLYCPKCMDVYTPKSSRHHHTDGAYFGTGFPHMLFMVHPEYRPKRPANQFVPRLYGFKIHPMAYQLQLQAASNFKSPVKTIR", "test": "CK2 Kinase Assay (radiometric, [γ-33P] ATP)", "format": "biochemical", "conditions": "final ATP concentration 15 μM, 10 min at 30° C., eight concentrations; read-out: protein kinase CK2 inhibition IC50", "description": "CK2 Kinase Assay was conducted using the protocol as described in Pierre F. et al; J. Med. Chem. 2011, 54, 635-654. The tested compounds in aqueous solution were added at a volume of 10 μL to a reaction mixture comprising 10 μL of assay dilution buffer (ADB; 20 mM MOPS, pH 7.2, 25 mM P-glycerol phosphate, 5 mM EGTA, 1 mM sodium orthovanadate, and 1 mM dithiothreitol), 10 μL of substrate peptide (RRRDDDSDDD, dissolved in ADB at a concentration of 1 mM), 10 μL of recombinant human CK2 (RROP-holoenzyme, 25 ng dissolved in ADB; Millipore). Reactions were initiated by the addition of 10 μL of ATP solution (90% 75 mMMgCl2, 75 μM ATP (final ATP concentration:15 μM) dissolved in ADB; 10% [γ-33P] ATP (stock 1mCi/100 μL; 3000 Ci/mmol (Perkin-Elmer) and maintained for 10 min at 30° C. The reactions were quenched with 100 μL of 0.75% phosphoric acid and then transferred to and filtered through a phosphor cellulose filter plate (Millipore). After washing each well five times with 0.75% phosphoric acid, the plate was dried under vacuum for 5 min and, following the addition of 15 μL of scintillation fluid to each well, the residual radioactivity was measured using a Wallac luminescence counter. The IC50 values were derived from eight concentrations of test inhibitors."}, "[5]": {"tested_on": "MCF7 (breast) cancer cell line", "test": "In vitro cytotoxic activity MTT assay, MCF7", "format": "cell-based", "conditions": "Homo sapiens; MCF7 (breast) cells, exposed for 96 hours; read-out: IC50, concentration of compound eliciting a 50% inhibition of cell proliferation", "description": "as §1"}, "[6]": {"tested_on": "PC3 (prostate) cancer cell line", "test": "In vitro cytotoxic activity MTT assay, PC3", "format": "cell-based", "conditions": "Homo sapiens, PC3 (prostate) cells, exposed for 96 hours, read-out: IC50, concentration of compound eliciting a 50% inhibition of cell proliferation", "description": "as §1"}, "[7]": {"tested_on": "MIAPaCa-2 (pancreas) cancer cell line", "test": "In vitro cytotoxic activity MTT assay, MIAPaCa-2", "format": "cell-based", "conditions": "Homo sapiens, MIA PaCa-2; MIAPaCa-2 (pancreas) cells, exposed for 96 hours; read-out: IC50, concentration of compound eliciting a 50% inhibition of cell proliferation", "description": "as §1"}, "[8]": {"tested_on": "MDA-MB-231 (breast) cancer cell line", "test": "In vitro cytotoxic activity MTT assay, MDA-MB-231", "format": "cell-based", "conditions": "Homo sapiens; MDA-MB-231 (breast) cells, exposed for 96 hours; read-out: IC50, concentration of compound eliciting a 50% inhibition of cell proliferation", "description": "as §1"}, "[9]": {"tested_on": "HCT116 (colon) cancer cell line", "test": "In vitro cytotoxic activity MTT assay, HCT116", "format": "cell-based", "conditions": "Homo sapiens, HCT-116; HCT116 (colon) cells, exposed for 96 hours; read-out: IC50, concentration of compound eliciting a 50% inhibition of cell proliferation", "description": "as §1"}},
  "data": [
    {"smiles": "Clc1cccc(Nc2c3ccncc3nc3c2nc2cnccn23)c1", "note": "[Compound 1, N-(3-chlorophenyl)pyrazino[2′,1′:2,3]imidazo[4,5-b][1,7]naphthyridin-11-amine]", "values": [
      {"measurement": "IC50", "setting": "[1]", "result": 2800, "unit": "nM"},
      {"measurement": "IC50", "setting": "[2]", "result": 2900, "unit": "nM"},
      {"measurement": "IC50", "setting": "[3]", "result": 3200, "unit": "nM"},
      {"measurement": "IC50", "setting": "[4]", "result": 92, "unit": "nM"},
      {"measurement": "IC50", "setting": "[5]", "result": 6300, "unit": "nM"},
      {"measurement": "IC50", "setting": "[6]", "result": 1900, "unit": "nM"},
      {"measurement": "IC50", "setting": "[7]", "result": 1100, "unit": "nM"},
      {"measurement": "IC50", "setting": "[8]", "result": 5000, "unit": "nM"},
      {"measurement": "IC50", "setting": "[9]", "result": 1400, "unit": "nM"}
    ]}
  ]
}
